# Legend:
# [1] = system: A549 cells; experiment: Ras cellular assay, growth of cells with K-Ras G12S mutation (CellTiter-Glo); format: cell-based; details: Homo sapiens, cell growth, Example 9, G12S mutation, read-out: IC50 against A549 cells
# Experimental: For example, this assay can be also used to assess a selective growth inhibition of a mutant Ras protein relative to a wildtype, or relative to a different mutant Ras protein.
# A549 (ATCC CCL-185) and LS123 (ATCC CCL-255) cell lines comprise a G12S mutation and can be used to assess Ras cellular signaling in vitro, e.g., in response to the compounds herein. A549 culture medium is prepared with RPMI-1640 and 10% heat-inactivated FBS. LS123 culture medium is prepared with RPMI-1640 and 10% heat-inactivated FBS. A CellTiter-Glo (CTG) luminescent based assay (Promega) is used to assess growth of the cells, as a measurement of the ability of the compounds herein to inhibit Ras signaling in the cells. The cells (e.g., 800 per well) are seeded in their respective culture medium in standard tissue culture-treated 384-well format plates (Falcon #08-772-116) or ultra-low attachment surface 384-well format plates (S-Bio #MS-9384WZ). The day after plating, cells are treated with a dilution series (e.g., a 10 point 3-fold dilution series) of the compounds herein (e.g., approximately 40 μL final volume per well). Cell viability can be monitored (e.g., approximately 6 days later) according to the manufacturer's recommended instructions, where the CellTiter-Glo reagent is added (e.g., approximately 10 μL), vigorously mixed, covered, and placed on a plate shaker (e.g., approximately for 20 min) to ensure sufficient cell lysis prior to assessment of luminescent signal. The IC50 values are determined using the four parameter fit. The resulting IC50 value is a measurement of the ability of the compounds herein to reduce cell growth of Ras-driven cells (e.g., tumor cell lines) in vitro and/or in vivo.
# [2] = system: SW620 cells; experiment: Ras cellular assay, growth of cells with K-Ras G12V mutation (CellTiter-Glo); format: cell-based; details: Homo sapiens, SW-620; cell growth, Example 9, G12V mutation; read-out: IC50 against SW620 cells
# In short: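 SW620 (K-Ras G12V) cells, e.g. 800/well in RPMI-1640 with 10% heat-inactivated FBS on standard or ultra-low attachment plates, were dosed the day after plating with e.g. a 10-point 3-fold series. Viability by CellTiter-Glo luminescence about 6 days later; IC50 from four-parameter fit.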
# [3] = molecular target: T1, K-Ras G12S (Homo sapiens, UniProt P01116, G12S); experiment: HTRF resonance energy transfer assay, K-Ras G12S / SOS1 interaction; format: biochemical; details: HTRF assay of Example 5; read-out: IC50 against K-Ras G12S
# T1 construct: made in house; host or cells: E. coli BL21 (DE3)
# In short: (§1)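 GST-tagged K-Ras (WT or mutant) bound to anti-GST-Eu donor was mixed with His-hSOS1 bound to anti-6His-XL665 acceptor in ~5 mM HEPES pH 7.4, 150 mM NaCl, 1 mM DTT, 0.05% BSA, 0.0025% Igepal. HTRF (ex 337, em 620/665 nm) was read after ~10 min or longer. IC50 came from the 665/620 ratio over duplicates from 10 μM to 0.01 μM.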
# [4] = molecular target: T2, K-Ras WT (Homo sapiens, UniProt P01116); experiment: HTRF resonance energy transfer assay, K-Ras WT / SOS1 interaction; format: biochemical; details: HTRF assay of Example 5; read-out: IC50 against K-Ras WT
# T2 construct: made in house; host or cells: E. coli BL21 (DE3)
# In short: as §1
# [5] = molecular target: T3, K-Ras G12V (Homo sapiens, UniProt P01116, G12V); experiment: HTRF resonance energy transfer assay, K-Ras G12V / SOS1 interaction; format: biochemical; details: HTRF assay of Example 5; read-out: IC50 against K-Ras G12V
# T3 construct: made in house; host or cells: E. coli BL21 (DE3)
# In short: as §1
# [6] = molecular target: T4, K-Ras G12D (Homo sapiens, UniProt P01116, G12D); experiment: HTRF resonance energy transfer assay, K-Ras G12D / SOS1 interaction; format: biochemical; details: HTRF assay of Example 5; read-out: IC50 against K-Ras G12D
# T4 construct: made in house; host or cells: E. coli BL21 (DE3)
# In short: as §1
# T3 sequence (P01116 1-188 isoform P01116-2 G12V): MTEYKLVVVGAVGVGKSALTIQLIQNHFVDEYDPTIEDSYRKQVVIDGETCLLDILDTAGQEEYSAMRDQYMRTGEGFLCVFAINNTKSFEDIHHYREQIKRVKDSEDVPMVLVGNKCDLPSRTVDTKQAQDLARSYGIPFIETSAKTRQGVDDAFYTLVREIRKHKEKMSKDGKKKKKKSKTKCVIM
# T4 sequence (P01116 1-188 isoform P01116-2 G12D): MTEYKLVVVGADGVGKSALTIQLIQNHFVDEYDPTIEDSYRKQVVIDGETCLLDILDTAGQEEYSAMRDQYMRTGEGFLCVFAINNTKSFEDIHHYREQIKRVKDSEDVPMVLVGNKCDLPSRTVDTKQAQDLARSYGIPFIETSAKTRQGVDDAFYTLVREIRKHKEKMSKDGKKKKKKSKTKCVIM
# T1 sequence (P01116 1-188 isoform P01116-2 G12S): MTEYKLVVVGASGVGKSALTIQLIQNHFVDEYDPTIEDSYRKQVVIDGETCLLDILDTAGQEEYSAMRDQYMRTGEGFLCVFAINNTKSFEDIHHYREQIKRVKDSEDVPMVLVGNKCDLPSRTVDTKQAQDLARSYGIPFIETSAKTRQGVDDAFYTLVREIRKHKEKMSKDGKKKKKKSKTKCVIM
# T2 sequence (P01116 1-188 isoform P01116-2): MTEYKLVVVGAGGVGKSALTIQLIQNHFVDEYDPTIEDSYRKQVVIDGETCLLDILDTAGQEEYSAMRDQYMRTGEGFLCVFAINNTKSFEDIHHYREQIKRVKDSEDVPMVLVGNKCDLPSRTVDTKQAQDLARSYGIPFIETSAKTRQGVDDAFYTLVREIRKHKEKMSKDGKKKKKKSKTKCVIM
structure (smiles),measurement,setting,value
"N#Cc1c(N)sc2c(F)ccc(-c3c(Cl)c4c5c(nc(OC[C@@]67CCCN6C[C@H](F)C7)nc5c3F)N(C3CCCN(C=O)CC3)CCO4)c12 (stereo partly drawn) [Compound 601, 2-amino-4-(8-chloro-10-fluoro-2-(((2R,7aS)-2-fluorotetrahydro-1H-pyrrolizin-7a(5H)-yl)methoxy)-4-(1-formylazepan-4-yl)-5,6-dihydro-4H-[1,4]oxazepino[5,6,7-de]quinazolin-9-yl)-7-fluorobenzo[b]thiophene-3-carbonitrile]",IC50,[1],< 5000 nM
same,IC50,[2],< 5000 nM
same,IC50,[3],< 100 nM
same,IC50,[4],< 100 nM
same,IC50,[5],< 100 nM
same,IC50,[6],< 100 nM
"CC1(C)CCC(N2CCOc3c(Cl)c(-c4ccc(F)c5sc(N)c(C#N)c45)c(F)c4nc(OC[C@@]56CCCN5C[C@H](F)C6)nc2c34)CO1 (stereo partly drawn) [Compound 603, 2-amino-4-(8-chloro-4-(6,6-dimethyltetrahydro-2H-pyran-3-yl)-10-fluoro-2-(((2R,7aS)-2-fluorotetrahydro-1H-pyrrolizin-7a(5H)-yl)methoxy)-5,6-dihydro-4H-[1,4]oxazepino[5,6,7-de]quinazolin-9-yl)-7-fluorobenzo[b]thiophene-3-carbonitrile]",IC50,[1],< 5000 nM
same,IC50,[2],< 5000 nM
same,IC50,[3],< 100 nM
same,IC50,[4],< 100 nM
same,IC50,[5],< 100 nM
same,IC50,[6],< 100 nM
"N#Cc1c(N)sc2c(F)ccc(-c3c(Cl)c4c5c(nc(OC[C@@]67CCCN6C[C@H](F)C7)nc5c3F)N(C3CCC(=C(F)F)C3)CCO4)c12 (stereo partly drawn) [Compound 605, 2-amino-4-(8-chloro-4-(3-(difluoromethylene)cyclopentyl)-10-fluoro-2-(((2R,7aS)-2-fluorotetrahydro-1H-pyrrolizin-7a(5H)-yl)methoxy)-5,6-dihydro-4H-[1,4]oxazepino[5,6,7-de]quinazolin-9-yl)-7-fluorobenzo[b]thiophene-3-carbonitrile]",IC50,[1],< 5000 nM
same,IC50,[2],< 5000 nM
same,IC50,[3],< 100 nM
same,IC50,[4],< 100 nM
same,IC50,[5],< 100 nM
"CC(=O)NC1CC(N2CCOc3c(Cl)c(-c4ccc(F)c5sc(N)c(C#N)c45)c(F)c4nc(OC[C@@]56CCCN5C[C@H](F)C6)nc2c34)C1 (stereo partly drawn) [Compound 623, N-(3-(9-(2-amino-3-cyano-7-fluorobenzo[b]thiophen-4-yl)-8-chloro-10-fluoro-2-(((2R,7aS)-2-fluorotetrahydro-1H-pyrrolizin-7a(5H)-yl)methoxy)-5,6-dihydro-4H-[1,4]oxazepino[5,6,7-de]quinazolin-4-yl)cyclobutyl)acetamide]",IC50,[1],< 5000 nM
same,IC50,[2],< 5000 nM
same,IC50,[3],< 100 nM
same,IC50,[4],< 100 nM
same,IC50,[5],< 100 nM
same,IC50,[6],< 100 nM
"N#CCC(=O)N1CCC(N2CCOc3c(Cl)c(-c4ccc(F)c5sc(N)c(C#N)c45)c(F)c4nc(OC[C@@]56CCCN5C[C@H](F)C6)nc2c34)C1 (stereo partly drawn) [Compound 626, 2-amino-4-(8-chloro-4-(1-(2-cyanoacetyl)pyrrolidin-3-yl)-10-fluoro-2-(((2R,7aS)-2-fluorotetrahydro-1H-pyrrolizin-7a(5H)-yl)methoxy)-5,6-dihydro-4H-[1,4]oxazepino[5,6,7-de]quinazolin-9-yl)-7-fluorobenzo[b]thiophene-3-carbonitrile]",IC50,[1],< 5000 nM
same,IC50,[2],< 5000 nM
same,IC50,[3],< 100 nM
same,IC50,[4],< 100 nM
same,IC50,[5],< 100 nM
same,IC50,[6],< 100 nM
"N#Cc1c(N)sc2c(F)ccc(-c3c(Cl)c4c5c(nc(OC[C@@]67CCCN6C[C@H](F)C7)nc5c3F)N(C3CCCOCC3)CCO4)c12 (stereo partly drawn) [Compound 638, 2-amino-4-(8-chloro-10-fluoro-2-(((2R,7aS)-2-fluorotetrahydro-1H-pyrrolizin-7a(5H)-yl)methoxy)-4-(oxepan-4-yl)-5,6-dihydro-4H-[1,4]oxazepino[5,6,7-de]quinazolin-9-yl)-7-fluorobenzo[b]thiophene-3-carbonitrile]",IC50,[1],< 5000 nM
same,IC50,[2],< 5000 nM
same,IC50,[3],< 100 nM
same,IC50,[4],< 100 nM
same,IC50,[5],< 100 nM
same,IC50,[6],< 100 nM
"C[C@H]1CN(C23CC(C2)C3)c2nc(OC[C@@]34CCCN3C[C@H](F)C4)nc3c(F)c(-c4ccc(F)c5sc(N)c(C#N)c45)c(Cl)c(c23)O1 [Compound 687, 2-amino-4-((6S)-4-(bicyclo[1.1.1]pentan-1-yl)-8-chloro-10-fluoro-2-(((2R,7aS)-2-fluorotetrahydro-1H-pyrrolizin-7a(5H)-yl)methoxy)-6-methyl-5,6-dihydro-4H-[1,4]oxazepino[5,6,7-de]quinazolin-9-yl)-7-fluorobenzo[b]thiophene-3-carbonitrile]",IC50,[1],< 5000 nM
same,IC50,[2],< 5000 nM
same,IC50,[3],< 100 nM
same,IC50,[4],< 100 nM
same,IC50,[6],< 100 nM
"N#Cc1c(N)sc2c(F)ccc(-c3c(Cl)c4c5c(nc(OC[C@@]67CCCN6C[C@H](F)C7)nc5c3F)N(C3CC(NC(=O)C(F)Cl)C3)CCO4)c12 (stereo partly drawn) [Compound 724, N-(3-(9-(2-amino-3-cyano-7-fluorobenzo[b]thiophen-4-yl)-8-chloro-10-fluoro-2-(((2R,7aS)-2-fluorotetrahydro-1H-pyrrolizin-7a(5H)-yl)methoxy)-5,6-dihydro-4H-[1,4]oxazepino[5,6,7-de]quinazolin-4-yl)cyclobutyl)-2-chloro-2-fluoroacetamide]",IC50,[1],< 5000 nM
same,IC50,[2],< 5000 nM
same,IC50,[3],< 100 nM
same,IC50,[4],< 100 nM
same,IC50,[6],< 100 nM
"CCC1CC(N2CCOc3c(Cl)c(-c4ccc(F)c5sc(N)c(C#N)c45)c(F)c4nc(OC[C@@]56CCCN5C[C@H](F)C6)nc2c34)CCO1 (stereo partly drawn) [Compound 903, 2-amino-4-(8-chloro-4-(2-ethyltetrahydro-2H-pyran-4-yl)-10-fluoro-2-(((2R,7aS)-2-fluorotetrahydro-1H-pyrrolizin-7a(5H)-yl)methoxy)-5,6-dihydro-4H-[1,4]oxazepino[5,6,7-de]quinazolin-9-yl)-7-fluorobenzo[b]thiophene-3-carbonitrile]",IC50,[1],< 5000 nM
same,IC50,[2],< 5000 nM
same,IC50,[3],< 100 nM
same,IC50,[4],< 100 nM
same,IC50,[5],< 100 nM
"C[C@H](Oc1nc2c3c(c(Cl)c(-c4ccc(F)c5sc(N)c(C#N)c45)c(F)c3n1)OCCN2C1CCOCC1)[C@@H]1CCCN1C [Compound 904, 2-amino-4-(8-chloro-10-fluoro-2-((S)-1-((S)-1-methylpyrrolidin-2-yl)ethoxy)-4-(tetrahydro-2H-pyran-4-yl)-5,6-dihydro-4H-[1,4]oxazepino[5,6,7-de]quinazolin-9-yl)-7-fluorobenzo[b]thiophene-3-carbonitrile]",IC50,[1],< 5000 nM
same,IC50,[2],< 5000 nM
same,IC50,[3],< 100 nM
same,IC50,[4],< 100 nM
same,IC50,[5],< 100 nM
"N#Cc1c(N)sc2c(F)ccc(-c3c(Cl)c4c5c(nc(OC[C@@]67CCCN6C[C@H](F)C7)nc5c3F)N(C3CCC(COC(F)F)C3)CCO4)c12 (stereo partly drawn) [Compound 933, 2-amino-4-(8-chloro-4-(3-((difluoromethoxy)methyl)cyclopentyl)-10-fluoro-2-(((2R,7aS)-2-fluorotetrahydro-1H-pyrrolizin-7a(5H)-yl)methoxy)-5,6-dihydro-4H-[1,4]oxazepino[5,6,7-de]quinazolin-9-yl)-7-fluorobenzo[b]thiophene-3-carbonitrile]",IC50,[1],< 5000 nM
same,IC50,[2],< 5000 nM
same,IC50,[3],< 100 nM
same,IC50,[4],< 100 nM
same,IC50,[5],< 100 nM
"N#Cc1c(N)sc2c(F)ccc(-c3c(Cl)c4c5c(nc(OC[C@@]67CCCN6C[C@H](F)C7)nc5c3F)N(C3CC5(C3)CC5(F)F)CCO4)c12 (stereo partly drawn) [Compound 1004, 2-amino-4-(8-chloro-4-(1,1-difluorospiro[2.3]hexan-5-yl)-10-fluoro-2-(((2R,7aS)-2-fluorotetrahydro-1H-pyrrolizin-7a(5H)-yl)methoxy)-5,6-dihydro-4H-[1,4]oxazepino[5,6,7-de]quinazolin-9-yl)-7-fluorobenzo[b]thiophene-3-carbonitrile]",IC50,[1],< 5000 nM
same,IC50,[2],< 5000 nM
same,IC50,[4],< 100 nM
same,IC50,[5],< 100 nM

# From patent US12209102B2, “Heterocyclic compounds and uses thereof” (Kumquat Biosciences Inc., priority 2022, dated 2025)
